Here are results for 27 molecules from patent US20240228488A1 (TAKEDA PHARMACEUTICAL COMPANY LIMITED, priority 2021, published 2024).

Some results are limits rather than exact numbers.

The first assay deals with human activated kallikrein enzyme (Homo sapiens, UniProt P03952). Kind of assay: Plasma kallikrein inhibition, fluorogenic PFR-AMC substrate, 500 pM activated kallikrein format. Format: biochemical. As to conditions: 500 pM activated kallikrein, 300 uM PFR-AMC, 30 min preincubation, 10 min reaction; read-out: Primary Dose Response Assay: Average EC50. The protocol: Compounds were evaluated for inhibition of the human activated kallikrein enzyme in two formats of an assay employing a fluorogenic peptide substrate. In one assay format, the concentrations of reagents were as follows: 20 mM Tris pH 7.5, 1 mM EDTA, 150 mM sodium chloride, 0.1% PEG-400, 0.1% Triton X-100, 500 pM activated kallikrein enzyme, 300 uM Pro-Phe-Arg-7-amido-4-methylcoumarin (PFR-AMC) substrate. Prior to reaction initiation with substrate, enzyme and inhibitors were preincubated for 30 min at room temperature. After initiation with substrate, reactions were incubated for 10 min at room temperature and fluorescence emission at 460 nm from 380 nm excitation measured with a microplate reader. In another assay format, the concentrations of reagents were as follows: 20 mM Tris pH 7.5, 1 mM EDTA, 150 mM sodium chloride, 0.1% PEG-400, 0.1% Triton X-100, 5 pM activated kallikrein enzyme, 300 uM PFR-AMC substrate. Prior to reaction initiation with substrate, enzyme and inhibitors were preincubated for 30 min at room temperature. After initiation with substrate, reactions were incubated for 18 hr at room temperature and fluorescence emission at 460 nm from 380 nm excitation measured with a microplate reader.
Chain of human activated kallikrein enzyme (P03952 391-638 limits assumed): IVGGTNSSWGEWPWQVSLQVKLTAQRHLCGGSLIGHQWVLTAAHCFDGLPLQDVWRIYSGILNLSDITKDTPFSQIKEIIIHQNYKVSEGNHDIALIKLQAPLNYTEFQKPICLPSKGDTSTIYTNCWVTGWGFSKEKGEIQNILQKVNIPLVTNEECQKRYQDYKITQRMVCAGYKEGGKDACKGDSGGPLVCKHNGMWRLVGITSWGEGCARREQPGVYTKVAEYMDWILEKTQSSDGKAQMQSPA
Chain of human activated kallikrein enzyme (P03952 20-390 partner limits assumed): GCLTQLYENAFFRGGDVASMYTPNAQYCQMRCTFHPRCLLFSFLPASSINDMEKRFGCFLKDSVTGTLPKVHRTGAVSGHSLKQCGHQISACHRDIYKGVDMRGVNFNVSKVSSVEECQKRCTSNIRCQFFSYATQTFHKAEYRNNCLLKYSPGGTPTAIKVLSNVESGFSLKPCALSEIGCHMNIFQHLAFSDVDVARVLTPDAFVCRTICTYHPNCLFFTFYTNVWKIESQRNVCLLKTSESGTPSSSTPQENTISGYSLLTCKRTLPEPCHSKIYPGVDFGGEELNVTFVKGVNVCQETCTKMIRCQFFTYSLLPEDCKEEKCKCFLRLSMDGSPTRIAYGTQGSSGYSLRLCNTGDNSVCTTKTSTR
Table 49 provides the results of the assay in the format with 500 pM activated kallikrein assay. For the compounds listed in Table 49, the EC50 values are reported according to the following ranges: A≤1.0 nM; 1.0 nM<B≤10 nM; 10 nM<C≤100 nM; 100 nM<D≤1000 nM; 1000 nM<E≤6000 nM; 6000 nM<F.
Table 51 provides comparative plasma kallikrein inhibition potency in the assay format with 500 pM activated kallikrein assay (described in detail in a preceding example). For the compounds listed in Table 51, the EC50 values are reported according to the following ranges: A≤1.0 nM; 1.0 nM<B≤10 nM; 10 nM<C≤100 nM; 100 nM<D≤1000 nM; 1000 nM<E≤6000 nM; 6000 nM<F.
As to `CC1CCC(=O)N1c1cc(C2CC2)cn2cc(CNc3ccnc(NC(=O)[C@H]4C[C@@H]4c4cccc(Cl)c4)c3)nc12` (mixture of isomers) [Example 89, (1S,2S)-2-(3-chlorophenyl)-N-(4-(((6-cyclopropyl-8-(2-methyl-5-oxopyrrolidin-1-yl)imidazo[1,2-a]pyridin-2-yl)methyl)amino)pyridin-2-yl)cyclopropane-1-carboxamide], the EC50 is less than 1 nM.
Consider `O=C(Nc1cc(NCc2cn3cc(C4CC4)ccc3n2)ncn1)[C@H]1C[C@@H]1c1cccc(Cl)c1F` (racemic) [Example 43, rac-(1S*,2S*)-2-(3-chloro-2-fluorophenyl)-N-(6-(((6-cyclopropylimidazo[1,2-a]pyridin-2-yl)methyl)amino)pyrimidin-4-yl)cyclopropane-1-carboxamide], for which the EC50 was in the range of 10 to 100 nM.
As for `O=C(Nc1cc(NCc2cn3cc(C4CC4)ccc3n2)ncn1)[C@H]1C[C@@H]1c1cc(Cl)ccc1F` (racemic) [Example 44, rac-(1S*,2S*)-2-(5-chloro-2-fluorophenyl)-N-(6-(((6-cyclopropylimidazo[1,2-a]pyridin-2-yl)methyl)amino)pyrimidin-4-yl)cyclopropane-1-carboxamide], the EC50 fell in the range of 10 to 100 nM.
Consider `O=C(Nc1cc(NCc2cn3cc(C4CC4)ccc3n2)ncn1)[C@H]1C[C@@H]1c1ccc(F)c(Cl)c1` (racemic) [Example 45, rac-(1S*,2S*)-2-(3-chloro-4-fluorophenyl)-N-(6-(((6-cyclopropylimidazo[1,2-a]pyridin-2-yl)methyl)amino)pyrimidin-4-yl)cyclopropane-1-carboxamide], for which the EC50 is 100 to 1000 nM.
The same measure, in the same setting: next, `O=C(Nc1cc(NCc2cn3cc(C4CC4)ccc3n2)ncn1)[C@H]1C[C@@H]1c1cc(F)cc(Cl)c1` (racemic) [Example 46, rac-(1S*,2S*)-2-(3-chloro-5-fluorophenyl)-N-(6-(((6-cyclopropylimidazo[1,2-a]pyridin-2-yl)methyl)amino)pyrimidin-4-yl)cyclopropane-1-carboxamide]: 10 to 100 nM.
As for `COc1ccc(Cl)cc1[C@H]1C[C@@H]1C(=O)Nc1cc(NCc2cn3cc(C4CC4)ccc3n2)ncn1` (racemic) [Example 47, rac-(1S*,2S*)-2-(5-chloro-2-methoxyphenyl)-N-(6-(((6-cyclopropylimidazo[1,2-a]pyridin-2-yl)methyl)amino)pyrimidin-4-yl)cyclopropane-1-carboxamide], the EC50 was in the range of 100 to 1000 nM.
For `N#Cc1ccc(Cl)cc1[C@H]1C[C@@H]1C(=O)Nc1cc(NCc2cn3cc(C4CC4)ccc3n2)ncn1` (racemic) [Example 48, rac-(1S*,2S*)-2-(5-chloro-2-cyanophenyl)-N-(6-(((6-cyclopropylimidazo[1,2-a]pyridin-2-yl)methyl)amino)pyrimidin-4-yl)cyclopropane-1-carboxamide], the EC50 lay within 1 to 10 nM.
With `O=C(Nc1cc(NCc2cn3cc(C4CC4)ccc3n2)ncn1)[C@H]1C[C@@H]1c1cc(Cl)ccc1C(F)F` (racemic) [Example 51, rac-(1S*,2S*)-2-(5-chloro-2-(difluoromethyl)phenyl)-N-(6-(((6-cyclopropylimidazo[1,2-a]pyridin-2-yl)methyl)amino)pyrimidin-4-yl)cyclopropane-1-carboxamide], the EC50 was 10 to 100 nM.
As to `O=C(Nc1cc(NCc2cn3cc(C4CC4)ccc3n2)ncn1)[C@H]1C[C@@H]1c1cc(Cl)ccc1C(F)(F)F` (racemic) [Example 52, rac-(1S*,2S*)-2-(5-chloro-2-(trifluoromethyl)phenyl)-N-(6-(((6-cyclopropylimidazo[1,2-α]pyridin-2-yl)methyl)amino)pyrimidin-4-yl)cyclopropane-1-carboxamide], the half-maximal effective concentration (EC50) was in the range of 100 to 1000 nM.
Still for that read-out and setting: under `COc1cccc([C@H]2C[C@@H]2C(=O)Nc2cc(NCc3cn4cc(C5CC5)ccc4n3)ncn2)c1` (racemic) [Example 53, rac-(1S*,2S*)-N-(6-(6-cyclopropylimidazo[1,2-a]pyridin-2-yl)methyl)amino)pyrimidin-4-yl)-2-(3-methoxyphenyl)cyclopropane-1-carboxamide] stands 100 to 1000 nM; under `O=C(Nc1cc(NCc2cn3cc(C4CC4)ccc3n2)ncn1)[C@H]1C[C@@H]1c1cccc(Br)c1` (racemic) [Example 54, rac-(1S*,2S*)-2-(3-bromophenyl)-N-(6-(((6-cyclopropylimidazo[1,2-a]pyridin-2-yl)methyl)amino)pyrimidin-4-yl)cyclopropane-1-carboxamide], 10 to 100 nM; under `O=C(Nc1cc(NCc2cn3cc(C4CC4)ccc3n2)ncn1)[C@H]1C[C@@H]1c1cccc(Cl)c1` (racemic) [Example 55, rac-(1S*,2S*)-2-(3-chlorophenyl)-N-(6-(((6-cyclopropylimidazo[1,2-a]pyridin-2-yl)methyl)amino)pyrimidin-4-yl)cyclopropane-1-carboxamide], 1 to 10 nM.
As for `O=C(Nc1cc(NCc2cn3cc(C4CC4)cc(N4CCCC4=O)c3n2)ncn1)[C@H]1C[C@@H]1c1cccc(Cl)c1` (racemic) [Example 58, rac-(1S*,2S*)-2-(3-chlorophenyl)-N-(6-(((6-cyclopropyl-8-(2-oxopyrrolidin-1-yl)imidazo[1,2-α]pyridin-2-yl)methyl)amino)pyrimidin-4-yl)cyclopropane-1-carboxamide], the EC50 fell in the range of 1 to 10 nM.
In the case of `O=C(Nc1cc(NCc2cn3cc(C4CC4)cc(Cl)c3n2)ncn1)[C@H]1C[C@@H]1c1cccc(Cl)c1` (racemic) [Example 59, rac-(1S*,2S*)-N-(6-(((8-chloro-6-cyclopropylimidazo[1,2-α]pyridin-2-yl)methyl)amino)pyrimidin-4-yl)-2-(3-chlorophenyl)cyclopropane-1-carboxamide], the EC50 lay in the range of 1 to 10 nM.
The same measure, in the same setting: under `CCOC(=O)CCc1cc(C2CC2)cn2cc(CNc3cc(NC(=O)[C@H]4C[C@@H]4c4cccc(Cl)c4)ncn3)nc12` (racemic) [Example 61, rac-ethyl 3-(2-(((6-((1S*,2S*)-2-(3-chlorophenyl)cyclopropane-1-carboxamido)pyrimidin-4-yl)amino)methyl)-6-cyclopropylimidazo[1,2-α]pyridin-8-yl)propanoate] stands 1 to 10 nM; under `CC1(C)CC(=O)N(c2cc(C3CC3)cn3cc(CNc4cc(NC(=O)[C@H]5C[C@@H]5c5cccc(Cl)c5)ncn4)nc23)C1` (racemic) [Example 66, rac-(1S*,2S*)-2-(3-chlorophenyl)-N-(6-(((6-cyclopropyl-8-(4,4-dimethyl-2-oxopyrrolidin-1-yl)imidazo[1,2-a]pyridin-2-yl)methyl)amino)pyrimidin-4-yl)cyclopropane-1-carboxamide], 1 to 10 nM; under `O=C(Nc1cc(NCc2nc3ccc(C4CC4)cn3c2Cl)ncn1)[C@H]1C[C@@H]1c1cccc(Cl)c1` (racemic) [Example 69, rac-(1S*,2S*)-N-(6-(((3-chloro-6-cyclopropylimidazo[1,2-α]pyridin-2-yl)methyl)amino)pyrimidin-4-yl)-2-(3-chlorophenyl)cyclopropane-1-carboxamide], 1000 to 6000 nM.
Still for that read-out and setting: next, `O=C(O)CCc1cc(C2CC2)cn2cc(CNc3cc(NC(=O)[C@H]4C[C@@H]4c4cccc(Cl)c4)ncn3)nc12` (racemic) [Example 72, rac-3-(2-(((6-((1S*,2S*)-2-(3-chlorophenyl)cyclopropane-1-carboxamido)pyrimidin-4-yl)amino)methyl)-6-cyclopropylimidazo[1,2-a]pyridin-8-yl)propanoic acid]: 1 to 10 nM; `O=C(Nc1cc(NCc2cn3cc(C4CC4)cc(CN4CCOCC4)c3n2)ncn1)[C@H]1C[C@@H]1c1cccc(Cl)c1` (racemic) [Example 73, rac-(1S*,2S*)-2-(3-chlorophenyl)-N-(6-(((6-cyclopropyl-8-(morpholinomethyl)imidazo[1,2-a]pyridin-2-yl)methyl)amino)pyrimidin-4-yl)cyclopropane-1-carboxamide]: 1 to 10 nM.

The assay is the same for the next values; noted with them: comparative compounds, 500 pM activated kallikrein format; read-out: Primary Dose Response Assay: Average EC50.
For the molecule `O=C(NCc1cccc(Cl)c1)c1cnn(Cc2cn3cc(C4CC4)ccc3n2)c1`, the EC50 lay within 1000 to 6000 nM.
On the same count and under the same terms, next, `O=C(NCCc1cccc(Br)c1)c1cnn(Cc2cn3cc(C4CC4)ccc3n2)c1`: 1000 to 6000 nM; `O=C(NC1CC1Cc1cccc(Cl)c1)c1cnn(Cc2cn3cc(C4CC4)ccc3n2)c1` (stereo not drawn): 1000 to 6000 nM; `O=C(Cc1ncn2ccc(Cl)cc12)Nc1cc(NCc2cn3cc(C4CC4)ccc3n2)ncn1`: 1 to 10 nM.
On the same count and under the same terms, under `Clc1cccc([C@H]2C[C@@H]2CNc2cc(NCc3cn4cc(C5CC5)ccc4n3)ncn2)c1` stands 100 to 1000 nM.
As for `O=c1ccc(NCc2cn3cc(C4CC4)ccc3n2)cn1NC[C@H]1C[C@@H]1c1cccc(Cl)c1`, the EC50 fell in the range of 1000 to 6000 nM.
With `O=C(N[C@H]1C[C@@H]1c1cccc(Cl)c1)c1cc(NCc2cn3cc(C4CC4)ccc3n2)ncn1`, the concentration for a half-maximal effect (EC50) lay in the range of 1000 to 6000 nM.
In the case of `O=C(Nc1cc(NCc2cn3cc(C4CC4)ccc3n2)ncn1)NC1CC1c1cccc(Cl)c1` (stereo not drawn), the EC50 lay within 1000 to 6000 nM.

One may read the EC50 as the concentration that produces a half-maximal response.
